In patent US20030138375A1, “Individualization of therapy with Alzheimer's disease agents” (priority 2001, published 2003):
Where a name gives a salt, the structure may show the parent alone. Marks after values point to notes of the source that are not given here.

Key:
AAMU-Ab = assay: Competitive antigen ELISA, cross-reactivity of AAMU-Ab; type: binding, rabbit; conditions: 0 = absence of inhibition or inhibition no higher than 40% at 5×10^−3 M
Method: Buffers and water without additives are filtered through millipore filters and kept for 1 week. BSA, antibodies, Tween™ 20 and horse radish peroxidase conjugates are added to these buffers and water just prior to use. Urine samples are usually collected 4 hours after drinking a cup of coffee (instant or brewed with approximately 100 mg of caffeine per cup) and stored at −80° C. The urine samples are diluted 10 times with sodium phosphate buffer (620 mosm, pH 7.50) and are subsequently diluted with water to give concentrations of AAMU and 1X no higher than 3×10^−6 M in the ELISA. All the pipettings are done with an eight-channel pipette, except those of the antibody and sample solutions. Starting with the last well, 100 μL of a carbonate buffer (100 mM, pH 9.6) containing 2.5 μg mL^−1 antibodies are added to each well. After 90 min. at room temperature, the wells are washed three times with 100 mL of TPB: isotonic sodium phosphate buffer (310 mosm, pH 7.50) containing 0.05% Tween™ 20.
After the initial wash, unoccupied sites are blocked by incubation for 90 min. at room temperature with 100 μL TBP containing 3% BSA. The wells are washed four times with 100 μL TPB. […] The microplate is gently shaken with an orbital shaker at room temperature for 3-4 hours. The wells are washed three times with 100 μL TPB containing 1% BSA and three times with water containing 0.05% Tween™ 20. […]

[1] = cited from earlier work
[2] = system: individuals with mild to moderate Alzheimer's disease; conditions: cited from earlier work

O=c1[nH]c(=O)c2[nH]cnc2[nH]1 [Xanthine]
% Cross-Reaction AAMU-Ab (AAMU-Ab): 0^a %

COc1cc2c(cc1O)C(=O)C(CC1CCN(Cc3ccccc3)CC1)C2 (stereo not drawn) [6-O-desmethyl donepezil]
plasma radioactivity, expressed as a percent of the administered dose ([1]; 14C-labeled donepezil): 11%
plasma concentration relative to donepezil ([1]; in vivo): about 20%

COc1cc2c(cc1OC)C(=O)C(CC1CCN(Cc3ccccc3)CC1)C2 (racemic) [Donepezil, (±)-2,3-dihydro-5,6-dimethoxy-2-[[1-(phenylmethyl)-4-piperidinyl]methyl] -1H-inden-1-onehydrochloride]
effect size on the ADAS-Cog vs placebo ([2]; 5 mg or 10 mg per day, over 24 weeks): about 3 points

Nc1c2c(nc3ccccc13)CCCC2 [Tacrine]
improvement in cognitive function on the ADAS-Cog ([2]; 40 mg four times daily, over 12 weeks): about 2 points
persons who had to discontinue the drug due to side effects ([2]; human, in vivo): up to half
